Experimental data reported in patent US20210115494A1, “Improved method for measurement of microbial biomass” (Mycometer A/S, priority 2018, published 2021).

Tests used:
[1] = system: NAHA activity from Ambrosia psilostachya (Rag weed pollen); experiment: NAHA activity assay, rag weed pollen; format: biochemical
Protocol: (§1) In order to determine NAHA activity in different samples, the technology in WO 98/033934 was employed: A sample containing a dried or freeze dried organism is added to a buffer solution containing 4-Methylumbelliferyl N-acetyl-β-D-glucosaminide in a concentration of 20 μM. The reaction-time is varied depending on the ambient temperature and according to a reaction-time/temperature data sheet previously developed for fungal NAHA activity at various temperatures, and is 30 minutes at 23° C. The resulting fluorescence formed during the reaction time is monitored in a calibrated fluorometer.
(§2) Experiments were conducted where varying concentrations of AgNO3 was added to an analysis substrate. Furthermore, the experiments where performed on dried or freeze dried materials where both intact and fragmented cells are to be expected to be present.
(§3) Experiments analogous to those in example 1 were carried out, but instead of using non-specific inhibitors, the effect of different concentrations of DNJNAc on the NAHA activity in various biomass containing samples was investigated.

[2] = system: NAHA activity from Graham-flour; experiment: NAHA activity assay (4-methylumbelliferyl N-acetyl-β-D-glucosaminide, fluorescence), Graham-flour; format: biochemical; details: Graham Hour
Protocol: as §1, §2, §3

[3] = system: NAHA activity from Aspergillus fumigatus; experiment: NAHA activity assay, Aspergillus fumigatus (Table 4b, state not given); format: biochemical
Protocol: as §1, §3

[4] = system: NAHA activity from Aspergillus fumigatus freeze dried; experiment: NAHA activity assay, Aspergillus fumigatus freeze dried; format: biochemical; details: Aspergillus fumigatus (Freeze dried)
Protocol: as §1, §2, §3

[5] = system: NAHA activity from Dermatophagoides pteronyssinus (Dust mite); experiment: NAHA activity assay, dust mite; format: biochemical; details: Dermatophagoides pteronyssinus (House dust mite)
Protocol: as §1, §2, §3

[6] = system: NAHA activity from Trichoderma harzianum; experiment: NAHA activity assay, Trichoderma harzianum; format: biochemical
Protocol: as §1, §3

[7] = system: NAHA activity from Alternaria tenuissima; experiment: NAHA activity assay, Alternaria tenuissima; format: biochemical
Protocol: as §1, §3

[8] = system: NAHA activity from Penicillium crysogenum; experiment: NAHA activity assay, Penicillium crysogenum; format: biochemical; details: Penicillium chrysogenum
Protocol: as §1, §2, §3

[9] = system: NAHA activity from Grass pollen; experiment: NAHA activity assay, grass pollen; format: biochemical; details: Grass pollen
Protocol: as §1, §2, §3

non-fungal NAHA activity = experiment: NAHA activity assay, non-fungal sources overall; format: biochemical
Protocol: as §1, §2, §3

[10] = system: NAHA activity from Cat dander; experiment: NAHA activity assay, cat dander; format: biochemical
Protocol: as §1, §2, §3

[11] = system: NAHA activity from Lepidoglyphus destructor (Storage mite); experiment: NAHA activity assay, storage mite; format: biochemical; details: Lepidoglyphus destructor (Storage mite)
Protocol: as §1, §2, §3

[12] = system: NAHA activity from Aspergillus versicolor; experiment: NAHA activity assay, Aspergillus versicolor; format: biochemical
Protocol: as §1, §3

fungal NAHA activity = experiment: NAHA activity assay, fungal sources overall; format: biochemical, fungi
Protocol: as §1, §2, §3
The experiments were performed with whole cell/organism cultures rather than purified enzyme, which is normally used in experiments on specific inhibition. It is plausible, though, that the surprising non-specific inhibition effect observed for Ag^+ and Hg^+ could be due to the inhibitors being delayed in physically contacting the NAHA enzyme in the fungi when compared to other types of biomass.

[13] = system: NAHA activity from Mucor hiemalis; experiment: NAHA activity assay, Mucor hiemalis; format: biochemical
Protocol: as §1, §2, §3

[14] = system: NAHA activity from Acremonium spp.; experiment: NAHA activity assay, Acremonium spp.; format: biochemical; details: Acremonium sp.
Protocol: as §1, §2, §3

[15] = system: NAHA activity from Human skin cells; experiment: NAHA activity assay, human skin cells; format: biochemical
Protocol: as §1, §2, §3

[16] = system: NAHA activity from Stachybotrys chartarum; experiment: NAHA activity assay, Stachybotrys chartarum; format: biochemical
Protocol: as §1, §2, §3

[17] = system: NAHA activity from Aureobasidium pullulans; experiment: NAHA activity assay, Aureobasidium pullulans; format: biochemical
Protocol: as §1, §2, §3

[18] = system: NAHA activity from Mugworth pollen; experiment: NAHA activity assay, mugworth pollen; format: biochemical
Protocol: as §1, §2, §3

[19] = system: NAHA activity from Chaetomium globosum; experiment: NAHA activity assay, Chaetomium globosum; format: biochemical
Protocol: as §1, §3

[20] = system: NAHA activity from Birch pollen; experiment: NAHA activity assay, birch pollen; format: biochemical; details: Birch sollen
Protocol: as §1, §2, §3

## CC(=O)N[C@H]1CN[C@H](CO)[C@@H](O)[C@@H]1O [DNJNAc, 2-Acetamido-1,2-dideoxynojirimycin]
[1]; DNJNAc 24.5 μM
  NAHA activity, 0 μM DNJNAc = 100%: 8%
[1]; DNJNAc 49 μM
  NAHA activity, 0 μM DNJNAc = 100%: 6%
[1]; DNJNAc 98 μM
  NAHA activity, 0 μM DNJNAc = 100%: 5%
[1]; DNJNAc 196 μM
  NAHA activity, 0 μM DNJNAc = 100%: 4%
[2]; DNJNAc 24.5 μM
  NAHA activity, 0 μM DNJNAc = 100%: 14%
[2]; DNJNAc 49 μM
  NAHA activity, 0 μM DNJNAc = 100%: 9%
[2]; DNJNAc 98 μM
  NAHA activity, 0 μM DNJNAc = 100%: 6%
[2]; DNJNAc 196 μM
  NAHA activity, 0 μM DNJNAc = 100%: 6%
[3]; DNJNAc 24.5 μM
  NAHA activity, 0 μM DNJNAc = 100%: 122%
[3]; DNJNAc 49 μM
  NAHA activity, 0 μM DNJNAc = 100%: 110%
[3]; DNJNAc 98 μM
  NAHA activity, 0 μM DNJNAc = 100%: 89%
[3]; DNJNAc 196 μM
  NAHA activity, 0 μM DNJNAc = 100%: 88%
[4]; DNJNAc 24.5 μM
  NAHA activity, 0 μM DNJNAc = 100%: 114%
[4]; DNJNAc 49 μM
  NAHA activity, 0 μM DNJNAc = 100%: 105%
[4]; DNJNAc 98 μM
  NAHA activity, 0 μM DNJNAc = 100%: 104%
[4]; DNJNAc 196 μM
  NAHA activity, 0 μM DNJNAc = 100%: 96%
[5]; DNJNAc 24.5 μM
  NAHA activity, 0 μM DNJNAc = 100%: 5%
[5]; DNJNAc 49 μM
  NAHA activity, 0 μM DNJNAc = 100%: 2%
[5]; DNJNAc 98 μM
  NAHA activity, 0 μM DNJNAc = 100%: 1%
[5]; DNJNAc 196 μM
  NAHA activity, 0 μM DNJNAc = 100%: 1%
[6]; DNJNAc 24.5 μM
  NAHA activity, 0 μM DNJNAc = 100%: 120%
[6]; DNJNAc 49 μM
  NAHA activity, 0 μM DNJNAc = 100%: 93%
[6]; DNJNAc 98 μM
  NAHA activity, 0 μM DNJNAc = 100%: 92%
[6]; DNJNAc 196 μM
  NAHA activity, 0 μM DNJNAc = 100%: 83%
[7]; DNJNAc 24.5 μM
  NAHA activity, 0 μM DNJNAc = 100%: 72%
[7]; DNJNAc 49 μM
  NAHA activity, 0 μM DNJNAc = 100%: 79%
[7]; DNJNAc 98 μM
  NAHA activity, 0 μM DNJNAc = 100%: 58%
[7]; DNJNAc 196 μM
  NAHA activity, 0 μM DNJNAc = 100%: 48%
[8]; DNJNAc 24.5 μM
  NAHA activity, 0 μM DNJNAc = 100%: 89%
[8]; DNJNAc 49 μM
  NAHA activity, 0 μM DNJNAc = 100%: 86%
[8]; DNJNAc 98 μM
  NAHA activity, 0 μM DNJNAc = 100%: 74%
[8]; DNJNAc 196 μM
  NAHA activity, 0 μM DNJNAc = 100%: 76%
[9]; DNJNAc 24.5 μM
  NAHA activity, 0 μM DNJNAc = 100%: 41%
[9]; DNJNAc 49 μM
  NAHA activity, 0 μM DNJNAc = 100%: 37%
[9]; DNJNAc 98 μM
  NAHA activity, 0 μM DNJNAc = 100%: 30%
[9]; DNJNAc 196 μM
  NAHA activity, 0 μM DNJNAc = 100%: 20%
non-fungal NAHA activity; 24.5 μM in the assay substrate
  non fungal activity retained, average: 11%
non-fungal NAHA activity; 196 μM
  non-fungal NAHA activity retained, average of the control: 5%
[10]; DNJNAc 24.5 μM
  NAHA activity, 0 μM DNJNAc = 100%: 7%
[10]; DNJNAc 49 μM
  NAHA activity, 0 μM DNJNAc = 100%: 5%
[10]; DNJNAc 98 μM
  NAHA activity, 0 μM DNJNAc = 100%: 3%
[10]; DNJNAc 196 μM
  NAHA activity, 0 μM DNJNAc = 100%: 2%
[11]; DNJNAc 24.5 μM
  NAHA activity, 0 μM DNJNAc = 100%: 3%
[11]; DNJNAc 49 μM
  NAHA activity, 0 μM DNJNAc = 100%: 2%
[11]; DNJNAc 98 μM
  NAHA activity, 0 μM DNJNAc = 100%: 1%
[11]; DNJNAc 196 μM
  NAHA activity, 0 μM DNJNAc = 100%: 0%
[12]; DNJNAc 24.5 μM
  NAHA activity, 0 μM DNJNAc = 100%: 92%
[12]; DNJNAc 49 μM
  NAHA activity, 0 μM DNJNAc = 100%: 79%
[12]; DNJNAc 98 μM
  NAHA activity, 0 μM DNJNAc = 100%: 71%
[12]; DNJNAc 196 μM
  NAHA activity, 0 μM DNJNAc = 100%: 63%
Fungal NAHA activity; 24.5 μM in the assay substrate
  fungal NAHA activity retained, average: 83%
Fungal NAHA activity; 196 μM
  fungal NAHA activity retained, average: 60%
[13]; DNJNAc 24.5 μM
  NAHA activity, 0 μM DNJNAc = 100%: 58%
[13]; DNJNAc 49 μM
  NAHA activity, 0 μM DNJNAc = 100%: 37%
[13]; DNJNAc 98 μM
  NAHA activity, 0 μM DNJNAc = 100%: 45%
[13]; DNJNAc 196 μM
  NAHA activity, 0 μM DNJNAc = 100%: 25%
[14]; DNJNAc 24.5 μM
  NAHA activity, 0 μM DNJNAc = 100%: 99%
[14]; DNJNAc 49 μM
  NAHA activity, 0 μM DNJNAc = 100%: 92%
[14]; DNJNAc 98 μM
  NAHA activity, 0 μM DNJNAc = 100%: 80%
[14]; DNJNAc 196 μM
  NAHA activity, 0 μM DNJNAc = 100%: 76%
[15]; DNJNAc 24.5 μM
  NAHA activity, 0 μM DNJNAc = 100%: 3%
[15]; DNJNAc 49 μM
  NAHA activity, 0 μM DNJNAc = 100%: 1%
[15]; DNJNAc 98 μM
  NAHA activity, 0 μM DNJNAc = 100%: 1%
[15]; DNJNAc 196 μM
  NAHA activity, 0 μM DNJNAc = 100%: 1%
[16]; DNJNAc 24.5 μM
  NAHA activity, 0 μM DNJNAc = 100%: 90%
[16]; DNJNAc 98 μM
  NAHA activity, 0 μM DNJNAc = 100%: 97%
[16]; DNJNAc 196 μM
  NAHA activity, 0 μM DNJNAc = 100%: 85%
[17]; DNJNAc 24.5 μM
  NAHA activity, 0 μM DNJNAc = 100%: 56%
[17]; DNJNAc 49 μM
  NAHA activity, 0 μM DNJNAc = 100%: 67%
[17]; DNJNAc 98 μM
  NAHA activity, 0 μM DNJNAc = 100%: 50%
[17]; DNJNAc 196 μM
  NAHA activity, 0 μM DNJNAc = 100%: 27%
[18]; DNJNAc 24.5 μM
  NAHA activity, 0 μM DNJNAc = 100%: 8%
[18]; DNJNAc 49 μM
  NAHA activity, 0 μM DNJNAc = 100%: 6%
[18]; DNJNAc 98 μM
  NAHA activity, 0 μM DNJNAc = 100%: 5%
[18]; DNJNAc 196 μM
  NAHA activity, 0 μM DNJNAc = 100%: 4%
[19]; DNJNAc 24.5 μM
  NAHA activity, 0 μM DNJNAc = 100%: 88%
[19]; DNJNAc 49 μM
  NAHA activity, 0 μM DNJNAc = 100%: 91%
[19]; DNJNAc 98 μM
  NAHA activity, 0 μM DNJNAc = 100%: 92%
[19]; DNJNAc 196 μM
  NAHA activity, 0 μM DNJNAc = 100%: 81%
[20]; DNJNAc 24.5 μM
  NAHA activity, 0 μM DNJNAc = 100%: 10%
[20]; DNJNAc 49 μM
  NAHA activity, 0 μM DNJNAc = 100%: 9%
[20]; DNJNAc 98 μM
  NAHA activity, 0 μM DNJNAc = 100%: 8%
[20]; DNJNAc 196 μM
  NAHA activity, 0 μM DNJNAc = 100%: 9%
